# In publication PMC8791529, “Schistosoma mansoni α-N-acetylgalactosaminidase (SmNAGAL) regulates coordinated parasite movement and egg production” (PLoS Pathogens, 2022):
# Target: T1, SmNAGAL (Smp_089290) (Schistosoma mansoni, UniProt A0A8F5XXF6)
# T1 construct: gene NAGAL; native enzyme in soluble worm antigen preparation (SWAP) of adult worms, not purified; assigned by siRNA knockdown
# Assay: colorimetric hydrolysis at […] nm in worm extract, with siRNA knockdown
# Assay type: biochemical
# Conditions: 0.15 M McIlvaine buffer pH 4.6, 37 °C, 60 min; SWAP of siLuc and siSmp_089290 worms
smiles,measurement,value
CC(=O)N[C@H]1[C@@H](Oc2ccc([N+](=O)[O-])cc2)O[C@H](CO)[C@H](O)[C@@H]1O [4-Nitrophenyl N-acetyl-α-D-galactosaminide],"colorimetric hydrolysis at 410 nm in worm extract, with siRNA knockdown",smnagal depletion in siRNA-treated worms significantly reduced α-NAGAL activity in SWAP
